Results taken from patent US12521335B2, “Cosmetic compositions containing vitamin C compounds and uses thereof” (RoC OPCO LLC, priority 2021, dated 2026).

Assay: DPPH antioxidant assay
Type: biochemical
Settings: for DPPH antioxidant activity percent, Avg ± SEM: from 0.1% v/v stock
Source text: The purpose of this study was to evaluate the overall antioxidant capacity of the serum formula of Example 1B and gel-cream formula of Example 1C for their ability to reduce the free radical 2,2-Diphenyl-1-picrylhydrazyl ([…] and Singh (2011). Genesis and development of DPPH method of antioxidant assay. (See J. Food Sci Technol. 2011 August; 48(4): 412-422.) Ascorbic Acid (Vitamin C) was used as positive antioxidant control in the assay. The testing involved the suppression of optical density (OD) at 530 nm to a degree, which is proportional to an effective antioxidant activity. Test and control agents were stored at recommended storage temperature until use. An initial 0.1, 1 or 10% v/v dilution was prepared for each test formula in ultra-pure grade water or […]® 355. Serial 2-fold dilutions were prepared for each material and mixed with DPPH in ethanol solution. All samples were compared to diluent-only treated samples used as negative antioxidant activity. Optical density changes at 530 nm were evaluated 10 minutes after addition of DPPH to each sample. Average absorbance was calculated and plotted for each sample concentration. Effective antioxidant inhibition activity based on the change of absorbance of blank (diluent-only) sample (no material added). […] The DPPH antioxidant assay method was performed to measure antioxidant capacity of test materials. The free radical, 2,2-Diphenyl-1-picrylhydrazyl (DPPH) was obtained from Cayman Chemical Co. (Cat. No. 14805) and a 0.2 mM (0.0788 mg/mL) solution was prepared with 200-proof ethanol (Acros Organics, Cat No. 61509-0020). The assay consisted in the evaluation of the overall antioxidant capacity of test materials ([…] and Singh, 2011) for the ability to reduce DPPH (purple color), a stable free radical to DPPHH (Diphenylpicrylhydrazine; light yellow color). The testing involved the suppression of optical density (OD) at 517-530 nm to a degree which is proportional to an effective antioxidant activity. The antioxidant capacity of each material was compared to ascorbic acid (vitamin C) used as standard control. An initial 0.1, 1 or 10% v/v dilution was prepared for each test formula in ultra-pure grade water or […]® 355. Two-fold serial dilutions were made from the stock solution samples. Negative control wells only diluent was added. The vehicle/diluent used was ultra-pure grade water (Cayman Chemical, Co.; Cat No. 400000) or […] Corp.; Lot No. 170310UT14). Diluents were stored at room temperature and handled by the research scientist. To prepare the serum stock formulation (0.1, 1, 10% v/v), 1:10, 1:100 or 1:1000 dilutions were prepared using a positive displacement pipette. To prepare the 20% Ascorbic Acid and 0.05% stock formulation, a 1-dram glass screw-top vial container was pre-weighed and material added to the container followed by addition of neat vehicle to make a 200 mg/mL or […] solution, respectively. Two-fold serial dilutions were made from the stock solution samples. […] Vials were sealed and formulations were immediately used for antioxidant assays.

[1] = DPPH antioxidant activity near 100%

O=C1O[C@H]([C@@H](O)CO)C(O)=C1O [20% Ascorbic Acid, Ascorbic Acid]
DPPH antioxidant activity percent, Avg ± SEM (0.001 % v/v): 38 ± 8% | DPPH antioxidant activity percent, Avg ± SEM (0.002 % v/v): 31 ± 11% | DPPH antioxidant activity percent, Avg ± SEM (0.003 % v/v): 50 ± 13% | DPPH antioxidant activity percent, Avg ± SEM (0.006 % v/v): 91 ± 4% | DPPH antioxidant activity percent, Avg ± SEM (0.013 % v/v): 100 ± 0% | DPPH antioxidant activity percent, Avg ± SEM (0.025 % v/v): 100 ± 0% | DPPH antioxidant activity percent, Avg ± SEM (0.050 % v/v): 100 ± 0% | Maximum effective Antioxidant Activity: Concentration (% v/v) [1]: 0.0125 % v/v | Maximum effective Antioxidant Activity: Dilution Factor [1]: 8,000
